{
  "source": "paper PMC11882969",
  "about": "(Nature Communications, 2025)",
  "molecular_target": "hCB1 (Homo sapiens, UniProt P21554)",
  "sequence (P21554 whole entry)": "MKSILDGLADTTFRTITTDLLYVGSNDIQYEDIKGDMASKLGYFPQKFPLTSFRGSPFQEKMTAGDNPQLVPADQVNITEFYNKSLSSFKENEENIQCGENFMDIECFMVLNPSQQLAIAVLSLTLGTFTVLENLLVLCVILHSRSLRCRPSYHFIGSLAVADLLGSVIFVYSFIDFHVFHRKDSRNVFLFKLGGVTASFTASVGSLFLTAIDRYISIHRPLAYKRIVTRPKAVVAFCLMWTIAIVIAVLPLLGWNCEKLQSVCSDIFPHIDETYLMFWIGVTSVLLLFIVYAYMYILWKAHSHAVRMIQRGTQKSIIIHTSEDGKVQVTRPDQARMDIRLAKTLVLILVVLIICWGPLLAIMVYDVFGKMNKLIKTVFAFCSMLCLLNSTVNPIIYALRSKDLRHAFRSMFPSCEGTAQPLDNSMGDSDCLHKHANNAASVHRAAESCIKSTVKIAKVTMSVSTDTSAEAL",
  "experiment": "bioSensAll ebBRET signaling profiling, hCB1",
  "format": "cell-based",
  "design": "host or cells: HEK293SL cells, transient PEI transfection",
  "settings": "for Gi1 hCB1 response: Gi1 biosensor; for Gi1 hCB1 / GoB hCB1: single replicate values, FigS6a",
  "note": "Values joined by “and” are separate entries in the source; they are usually repeats but may differ in a detail not shown here. Identical values can stand only once.",
  "data": [
    {"smiles": "Cc1cc(C(=O)N2CC3(CCC3)[C@@H]2[C@@H]2CCCO2)nn1-c1cccc(C(F)(F)F)c1", "note": "[‘3386]", "values": [
      {"measurement": "Gi1 hCB1 response", "setting": "Log [Compound] (M) -4.22186", "value": -31.6589},
      {"measurement": "Gi1 hCB1 response", "setting": "Log [Compound] (M) -4.63927", "value": -26.0187},
      {"measurement": "Gi1 hCB1 response", "setting": "Log [Compound] (M) -5.47381", "value": -11.5379},
      {"measurement": "Gi1 hCB1 response", "setting": "Log [Compound] (M) -5.89285", "value": -4.6},
      {"measurement": "Gi1 hCB1 response", "setting": "Log [Compound] (M) -6.31878", "value": 6.86},
      {"measurement": "Gi1 hCB1 response", "setting": "Log [Compound] (M) -6.72585", "value": -4.577},
      {"measurement": "Gi1 hCB1 response", "setting": "Log [Compound] (M) -7.14267", "value": -3.682},
      {"measurement": "Gi1 hCB1 response", "setting": "Log [Compound] (M) -7.55284", "value": 0.369},
      {"measurement": "Gi1 hCB1 response", "setting": "Log [Compound] (M) -8", "value": -1.959},
      {"measurement": "Gi1 hCB1 response", "setting": "Log [Compound] (M) -8.22186", "value": -1.847},
      {"measurement": "Gi1 hCB1 response", "setting": "Log [Compound] (M) -8.39794", "value": 6.792},
      {"measurement": "Gi1 hCB1 response", "setting": "Log [Compound] (M) -8.68787", "value": 5.83},
      {"measurement": "Gi1 hCB1 response", "setting": "Log [Compound] (M) -9.15521", "value": -6.435},
      {"measurement": "Gi1 hCB1 response", "setting": "Log [Compound] (M) -9.61989", "value": 5.561},
      {"measurement": "Gi1 hCB1 response", "setting": "Log [Compound] (M) -10.0969", "value": -3.167},
      {"measurement": "Gi1 hCB1 response", "setting": "Log [Compound] (M) -10.5529", "value": 5.808},
      {"measurement": "Gi1 hCB1 response", "setting": "Log [Compound] (M) -11.0177", "value": 14.3798},
      {"measurement": "Gi1 hCB1 response", "setting": "Log [Compound] (M) -11.4949", "value": 4.331},
      {"measurement": "Gi1 hCB1 response", "setting": "Log [Compound] (M) -11.9208", "value": 0.6376},
      {"measurement": "Gi1 hCB1 response", "setting": "Log [Compound] (M) -12.3979", "value": 3.01},
      {"measurement": "Gi1 hCB1 response", "setting": "Log [Compound] (M) -12.8861", "value": 17.2222},
      {"measurement": "Gi1 hCB1 response", "setting": "Log [Compound] (M) -13, individual replicate values", "value": "0.5257 and -2.921"},
      {"measurement": "Gi1 hCB1", "setting": "Log [Compound] (M) -4.22186", "value": -5.415},
      {"measurement": "GoB hCB1", "setting": "Log [Compound] (M) -4.22186", "value": -7.725},
      {"measurement": "Gi1 hCB1", "setting": "Log [Compound] (M) -4.63927", "value": -6.833},
      {"measurement": "GoB hCB1", "setting": "Log [Compound] (M) -4.63927", "value": -8.211},
      {"measurement": "Gi1 hCB1", "setting": "Log [Compound] (M) -5.05788", "value": -4.3047},
      {"measurement": "GoB hCB1", "setting": "Log [Compound] (M) -5.05788", "value": -5.316},
      {"measurement": "Gi1 hCB1", "setting": "Log [Compound] (M) -5.47381", "value": -2.408},
      {"measurement": "GoB hCB1", "setting": "Log [Compound] (M) -5.47381", "value": -3.409},
      {"measurement": "Gi1 hCB1", "setting": "Log [Compound] (M) -5.89285", "value": -1.499},
      {"measurement": "GoB hCB1", "setting": "Log [Compound] (M) -5.89285", "value": -1.485},
      {"measurement": "Gi1 hCB1", "setting": "Log [Compound] (M) -6.31878", "value": 1.292},
      {"measurement": "GoB hCB1", "setting": "Log [Compound] (M) -6.31878", "value": 2.327},
      {"measurement": "Gi1 hCB1", "setting": "Log [Compound] (M) -6.72585", "value": 0.5361},
      {"measurement": "GoB hCB1", "setting": "Log [Compound] (M) -6.72585", "value": 1.033},
      {"measurement": "Gi1 hCB1", "setting": "Log [Compound] (M) -7.14267", "value": 0.4282},
      {"measurement": "GoB hCB1", "setting": "Log [Compound] (M) -7.14267", "value": 0.7269},
      {"measurement": "Gi1 hCB1", "setting": "Log [Compound] (M) -7.55284", "value": 0.9215},
      {"measurement": "GoB hCB1", "setting": "Log [Compound] (M) -7.55284", "value": 3.892},
      {"measurement": "Gi1 hCB1", "setting": "Log [Compound] (M) -8", "value": 0.7057},
      {"measurement": "GoB hCB1", "setting": "Log [Compound] (M) -8", "value": 1.158},
      {"measurement": "Gi1 hCB1", "setting": "Log [Compound] (M) -8.22186", "value": 1.7386},
      {"measurement": "GoB hCB1", "setting": "Log [Compound] (M) -8.22186", "value": -4.075},
      {"measurement": "Gi1 hCB1", "setting": "Log [Compound] (M) -8.39794", "value": -1.406},
      {"measurement": "GoB hCB1", "setting": "Log [Compound] (M) -8.39794", "value": 4.1437},
      {"measurement": "Gi1 hCB1", "setting": "Log [Compound] (M) -8.68787", "value": 1.2761},
      {"measurement": "GoB hCB1", "setting": "Log [Compound] (M) -8.68787", "value": -1.251},
      {"measurement": "Gi1 hCB1", "setting": "Log [Compound] (M) -9.15521", "value": 1.261},
      {"measurement": "GoB hCB1", "setting": "Log [Compound] (M) -9.15521", "value": -3.967},
      {"measurement": "Gi1 hCB1", "setting": "Log [Compound] (M) -9.61989", "value": 1.816},
      {"measurement": "GoB hCB1", "setting": "Log [Compound] (M) -9.61989", "value": -0.8377},
      {"measurement": "Gi1 hCB1", "setting": "Log [Compound] (M) -10.0969", "value": 0.3511},
      {"measurement": "GoB hCB1", "setting": "Log [Compound] (M) -10.0969", "value": 1.158},
      {"measurement": "Gi1 hCB1", "setting": "Log [Compound] (M) -10.5529", "value": 1.014},
      {"measurement": "GoB hCB1", "setting": "Log [Compound] (M) -10.5529", "value": 1.536},
      {"measurement": "Gi1 hCB1", "setting": "Log [Compound] (M) -11.0177", "value": 0.7982},
      {"measurement": "GoB hCB1", "setting": "Log [Compound] (M) -11.0177", "value": 0.4571},
      {"measurement": "Gi1 hCB1", "setting": "Log [Compound] (M) -11.4949", "value": 1.029},
      {"measurement": "GoB hCB1", "setting": "Log [Compound] (M) -11.4949", "value": 2.058},
      {"measurement": "Gi1 hCB1", "setting": "Log [Compound] (M) -11.9208", "value": -0.1422},
      {"measurement": "GoB hCB1", "setting": "Log [Compound] (M) -11.9208", "value": 1.68},
      {"measurement": "Gi1 hCB1", "setting": "Log [Compound] (M) -12.3979", "value": 0.5053},
      {"measurement": "GoB hCB1", "setting": "Log [Compound] (M) -12.3979", "value": 2.184},
      {"measurement": "Gi1 hCB1", "setting": "Log [Compound] (M) -12.8861", "value": -0.04972},
      {"measurement": "GoB hCB1", "setting": "Log [Compound] (M) -12.8861", "value": 1.176},
      {"measurement": "Gi1 hCB1", "setting": "Log [Compound] (M) -13", "value": "2.124 and 3.311"},
      {"measurement": "GoB hCB1", "setting": "Log [Compound] (M) -13", "value": "2.399 and 2.327"}
    ]}
  ]
}
